{"source": "patent US20230302026A1", "about": "“IMMUNOMODULATION FORMULATIONS AND RELATED METHODS” (priority 2020, published 2023)", "origin": "cited, not measured here", "key": {"CB2 [1]": {"target": "T1, CB2 (Homo sapiens, UniProt P34972)", "T1 sequence (P34972 whole entry)": "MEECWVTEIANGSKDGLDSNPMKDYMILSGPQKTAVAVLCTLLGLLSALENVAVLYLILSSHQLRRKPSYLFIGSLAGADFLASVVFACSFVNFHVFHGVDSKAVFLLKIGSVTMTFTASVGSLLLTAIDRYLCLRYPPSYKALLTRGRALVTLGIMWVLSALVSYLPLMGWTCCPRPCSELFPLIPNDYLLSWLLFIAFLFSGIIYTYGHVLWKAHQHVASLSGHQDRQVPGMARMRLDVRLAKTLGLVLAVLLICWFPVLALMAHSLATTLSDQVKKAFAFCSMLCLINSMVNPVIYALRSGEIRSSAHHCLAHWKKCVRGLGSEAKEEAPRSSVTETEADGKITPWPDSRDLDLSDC"}, "MAGL": {"target": "T2, MAGL (Homo sapiens, UniProt Q99685)", "T2 sequence (Q99685 1-303)": "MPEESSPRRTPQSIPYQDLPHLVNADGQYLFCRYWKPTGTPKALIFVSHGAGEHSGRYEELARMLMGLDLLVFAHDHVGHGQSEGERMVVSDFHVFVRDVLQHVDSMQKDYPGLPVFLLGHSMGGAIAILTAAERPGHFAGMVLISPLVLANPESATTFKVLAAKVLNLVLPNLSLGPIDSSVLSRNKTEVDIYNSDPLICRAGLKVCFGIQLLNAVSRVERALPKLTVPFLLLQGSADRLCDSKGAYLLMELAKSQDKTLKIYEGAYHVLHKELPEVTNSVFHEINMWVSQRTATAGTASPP", "conditions": "read-out: IC50 as MAGL inhibitor"}, "FAAH [2]": {"test_system": "FAAH", "conditions": "read-out: IC50 as FAAH inhibitor"}, "GPR55": {"target": "GPR55 (Homo sapiens, UniProt Q9Y2T6)", "sequence (Q9Y2T6 whole entry, species assumed)": "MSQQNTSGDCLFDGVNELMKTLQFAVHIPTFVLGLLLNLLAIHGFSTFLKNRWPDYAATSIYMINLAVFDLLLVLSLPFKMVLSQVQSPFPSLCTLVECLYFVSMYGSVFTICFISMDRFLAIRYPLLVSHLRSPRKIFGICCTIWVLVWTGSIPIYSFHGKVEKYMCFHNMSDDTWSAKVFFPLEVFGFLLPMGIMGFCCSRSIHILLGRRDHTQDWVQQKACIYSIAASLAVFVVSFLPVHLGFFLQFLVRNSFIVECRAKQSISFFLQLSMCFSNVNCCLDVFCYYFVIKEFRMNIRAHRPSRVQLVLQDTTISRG"}, "TRPV1": {"target": "TRPV1 (Homo sapiens, UniProt Q8NER1)", "sequence (Q8NER1 whole entry, species assumed)": "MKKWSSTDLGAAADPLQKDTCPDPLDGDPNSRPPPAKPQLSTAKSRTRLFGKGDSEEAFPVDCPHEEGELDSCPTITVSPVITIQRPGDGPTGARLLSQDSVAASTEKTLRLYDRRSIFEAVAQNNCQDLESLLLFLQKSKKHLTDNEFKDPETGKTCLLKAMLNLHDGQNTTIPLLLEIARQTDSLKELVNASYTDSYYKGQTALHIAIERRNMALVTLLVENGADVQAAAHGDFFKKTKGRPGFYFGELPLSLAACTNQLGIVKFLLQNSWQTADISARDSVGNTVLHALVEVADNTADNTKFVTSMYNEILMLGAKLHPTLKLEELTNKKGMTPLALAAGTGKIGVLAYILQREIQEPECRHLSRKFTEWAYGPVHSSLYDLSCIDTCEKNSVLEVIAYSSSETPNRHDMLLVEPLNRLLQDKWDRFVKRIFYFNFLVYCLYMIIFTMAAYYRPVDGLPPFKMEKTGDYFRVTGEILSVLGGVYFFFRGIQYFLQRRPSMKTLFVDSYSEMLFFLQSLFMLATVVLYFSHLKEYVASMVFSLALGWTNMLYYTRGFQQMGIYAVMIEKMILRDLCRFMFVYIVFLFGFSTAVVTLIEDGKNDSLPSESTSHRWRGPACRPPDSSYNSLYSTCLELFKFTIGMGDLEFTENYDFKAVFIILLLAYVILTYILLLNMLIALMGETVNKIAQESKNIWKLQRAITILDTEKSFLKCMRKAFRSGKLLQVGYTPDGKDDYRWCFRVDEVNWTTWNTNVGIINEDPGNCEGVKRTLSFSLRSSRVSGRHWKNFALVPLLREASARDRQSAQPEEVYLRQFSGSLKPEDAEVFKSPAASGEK"}, "FAAH [3]": {"target": "T3, FAAH (Homo sapiens, UniProt O00519)", "T3 sequence (O00519 1-579)": "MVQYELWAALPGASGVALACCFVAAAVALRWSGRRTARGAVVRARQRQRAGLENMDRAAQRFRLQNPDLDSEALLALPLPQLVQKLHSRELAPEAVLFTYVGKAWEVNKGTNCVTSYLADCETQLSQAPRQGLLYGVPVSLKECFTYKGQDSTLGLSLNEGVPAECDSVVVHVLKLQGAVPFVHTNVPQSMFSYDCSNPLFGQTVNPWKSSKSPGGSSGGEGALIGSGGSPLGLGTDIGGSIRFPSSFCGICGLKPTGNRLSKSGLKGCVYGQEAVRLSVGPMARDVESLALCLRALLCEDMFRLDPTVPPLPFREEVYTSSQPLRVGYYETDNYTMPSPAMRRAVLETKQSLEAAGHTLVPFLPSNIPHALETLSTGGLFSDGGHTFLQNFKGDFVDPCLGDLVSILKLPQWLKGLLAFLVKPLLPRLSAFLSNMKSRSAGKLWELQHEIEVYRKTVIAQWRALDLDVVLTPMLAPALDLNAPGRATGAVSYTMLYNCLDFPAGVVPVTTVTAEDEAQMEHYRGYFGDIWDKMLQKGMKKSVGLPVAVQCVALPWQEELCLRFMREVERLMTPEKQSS"}, "CB1 [4]": {"target": "T4, CB1 (Homo sapiens, UniProt P21554)"}, "Adenosine A2A": {"target": "Adenosine A2A (Homo sapiens, UniProt P29274)", "sequence (P29274 whole entry)": "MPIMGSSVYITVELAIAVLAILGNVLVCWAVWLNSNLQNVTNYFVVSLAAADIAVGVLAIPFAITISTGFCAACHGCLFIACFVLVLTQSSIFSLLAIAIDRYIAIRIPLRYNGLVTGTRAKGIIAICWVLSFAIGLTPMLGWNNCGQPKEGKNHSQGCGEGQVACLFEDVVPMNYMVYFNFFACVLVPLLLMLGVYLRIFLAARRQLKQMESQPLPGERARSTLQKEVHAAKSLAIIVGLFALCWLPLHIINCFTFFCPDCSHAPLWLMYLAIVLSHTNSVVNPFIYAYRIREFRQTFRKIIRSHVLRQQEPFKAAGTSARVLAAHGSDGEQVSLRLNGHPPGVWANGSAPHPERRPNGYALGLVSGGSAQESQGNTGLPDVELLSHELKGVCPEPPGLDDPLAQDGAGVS"}, "CB2 [5]": {"target": "T1, CB2", "remark": "listed apart in the source"}, "5-HT1a": {"target": "T5, 5-HT1a (Homo sapiens, UniProt P08908)", "T5 sequence (P08908 1-422)": "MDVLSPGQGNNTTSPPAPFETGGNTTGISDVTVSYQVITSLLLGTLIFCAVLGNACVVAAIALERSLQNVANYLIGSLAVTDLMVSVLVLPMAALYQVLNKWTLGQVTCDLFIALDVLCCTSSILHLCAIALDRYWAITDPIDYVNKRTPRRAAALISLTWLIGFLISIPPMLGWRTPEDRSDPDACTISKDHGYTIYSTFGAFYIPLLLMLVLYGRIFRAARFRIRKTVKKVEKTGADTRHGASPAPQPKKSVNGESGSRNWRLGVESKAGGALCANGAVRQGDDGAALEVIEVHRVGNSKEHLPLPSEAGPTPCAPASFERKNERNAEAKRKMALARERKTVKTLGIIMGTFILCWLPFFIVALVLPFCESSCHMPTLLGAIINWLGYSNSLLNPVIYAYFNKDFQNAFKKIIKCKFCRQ"}, "[6]": {"conditions": "at 18° C."}, "monoamine oxidase": {"target": "monoamine oxidase", "conditions": "in vitro; read-out: IC50 as monoamine oxidase inhibitor (MAOI)"}, "inflammation": {"test_system": "inflammation", "conditions": "animal model"}, "CB1 [7]": {"target": "T4, CB1", "conditions": "read-out: Ki, affinity for the human recombinant CB1 receptor"}}, "note": "Where two headings read alike, the source gives them in different places.", "data": [{"smiles": "C=C1CC/C=C(\\C)CC[C@@H]2[C@@H]1CC2(C)C", "note": "[(E)-BCP, beta-carophyllene]", "values": [{"measurement": "Ki", "setting": "CB2 [1]", "value": "0.155 ± 0.004", "unit": "µM"}]}, {"smiles": "O=c1c(O)c(-c2ccc(O)cc2)oc2cc(O)cc(O)c12", "note": "[kaempherol]", "values": [{"measurement": "IC50", "setting": "MAGL", "value": "< 0.1", "unit": "µM"}, {"measurement": "IC50", "setting": "FAAH [2]", "value": "< 1", "unit": "µM"}]}, {"smiles": "C=CC(C)(C)c1cc2cc3c(cc2oc1=O)OC(C(C)(C)OC(C)=O)C3", "note": "(stereo not drawn) [rutamarin]", "values": [{"measurement": "Ki", "setting": "CB2 [1]", "value": "< 10", "unit": "µM"}]}, {"smiles": "C=C(C)[C@@H]1CCC(C)=C[C@H]1c1c(O)cc(CCCCC)cc1O", "note": "[cannabidiol]", "values": [{"measurement": "Activity at GPR55", "setting": "GPR55", "value": "Antagonist"}, {"measurement": "Activity at TRPV1", "setting": "TRPV1", "value": "Agonist"}, {"measurement": "Activity at FAAH", "setting": "FAAH [3]", "value": "Inhibition"}, {"measurement": "Activity at CB1", "setting": "CB1 [4]", "value": "Agonist"}, {"measurement": "Activity at Adenosine A2A", "setting": "Adenosine A2A", "value": "Agonist"}, {"measurement": "activity at CB2", "setting": "CB2 [5]", "value": "Agonist"}, {"measurement": "Activity at 5-HT1a", "setting": "5-HT1a", "value": "Agonist"}]}, {"smiles": "c1ccc2c(Cc3c[nH]c4ccccc34)c[nH]c2c1", "note": "[3,3′-Diindolylmethane]", "values": [{"measurement": "Ki", "setting": "CB2 [1]", "value": "~1", "unit": "µM"}]}, {"smiles": "CCCCCc1cc(O)c2c(c1)OC(C)(C)[C@@H]1CCC(C)=C[C@@H]21", "note": "[THC, Δ^9-tetrahydrocannabinol]", "values": [{"measurement": "activity at CB2", "setting": "CB2 [1]", "value": "partial agonist"}]}, {"smiles": "O=C(/C=C/C=C/c1ccc2c(c1)OCO2)N1CCCCC1", "note": "[piperine]", "values": [{"measurement": "solubility in water", "setting": "[6]", "value": 40, "unit": "µg/mL"}]}, {"smiles": "CC(C)CNC(=O)/C=C/C=C/CCCCCC/C=C/c1ccc2c(c1)OCO2", "note": "[guineesine]", "values": [{"measurement": "IC50", "setting": "monoamine oxidase", "value": 139, "unit": "µM"}]}, {"smiles": "C/C1=C\\CC/C(C)=C/CC(C)(C)/C=C/C1", "note": "[Humulene]", "values": [{"measurement": "anti-inflammatory activity", "setting": "inflammation", "value": "equal to dexamethasone"}]}, {"smiles": "COc1ccc(/C=C/c2cc(OC)cc(=O)o2)cc1", "note": "[Yangonin, yangonin]", "values": [{"measurement": "Ki", "setting": "CB2 [1]", "value": "> 10", "unit": "µM"}, {"measurement": "Ki", "setting": "CB1 [7]", "value": 0.72, "unit": "µM"}]}]}
